Laboratory results from patent US20100209508A1, “Substituted Phenylphosphates as Mutual Prodrugs of Steroids and ß-Agonists for the Treatment of Title Pulmonary Inflammation and Bronchoconstriction” (CORUS PHARMA, INC., priority 2005, published 2010).

Columns and labels:
[1] = system: TNF-α; experiment: TNF-α secretion (h) (PBMC); type: cell-based, human; settings: Homo sapiens, 24 h, read-out: TNF-α secretion IC50
[2] = system: splenic lymphocytes isolated from C57BL/6 mice and CBA mice; experiment: Immunosuppression ([3H]TMD incorporation in mouse splenic lymphocytes); type: cell-based; settings: Mus musculus, Splenic lymphocyte; read-out: Immunosuppresion IC50
[3] = Control solution without enzyme (pH 7.4 buffer, 37° C.); type: physicochemical; settings: 25 to 50 hours, LCMS
[4] = system: cytokine release; experiment: Panel of standard cell-based in vitro assays evaluating cytokine release inhibition; settings: prodrugs compared to the steroid drugs (Examples 27 and 62, respectively)
Experimental: The selected compounds of the invention were tested in a panel of standard, cell-based in vitro assays evaluating the cytokine release inhibition and thus the anti-inflammatory activity of a test article. Several potent steroid analogs were identified, namely compounds described in Examples 23, 27, 43, 59 and 62. […] Therefore by masking the pharmacological properties of a respective steroid the mutual prodrug mitigates the oropharyngeal side effects and confines the antiinflammatory activity of a steroid to the endobronchial space, where the lung enzymes (specifically alkaline phosphatase) release the pharmacologically active steroid (see Examples 141-143).

[5] = system: alkaline phosphatase; experiment: Conversion of mutual prodrugs after exposure to alkaline phosphatase (ALP experiment); settings: for course in the reaction solution (with enzyme): alkaline phosphatase ~600 ng/μl, pH 7.4, 37° C., LCMS; for Prodrug 16 Concentration: mutual prodrug 16 + alkaline phosphatase; for Prodrug 17 Concentration: mutual prodrug 17 + alkaline phosphatase;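 as to all read-outs here: mutual prodrug and its released products quantified by LCMS over time in buffer with alkaline phosphatase, compared against enzyme-free control buffer, incubations running 25–50 hours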
Experimental: Reaction and control solutions were prepared by adding a 500 μL aliquot of a ˜200 ng/μl solution in 1:1 acetonitrile/water of and the compound 16 (or alternatively 17) to 500 μl of a pH 7.4 buffer solution, containing 5 mM tris(hydroxymethyl)aminomethane, 1 mM ZnCl2, 1 mM MgCl2. For the reaction solutions, the buffer also contained approximately 600 ng/μl of alkaline phosphatase (Sigma-Aldrich) whereas the control buffer solutions contained no enzyme. The reaction and control solutions were incubated at 37° C. for 25 to 50 hours. The solutions were analyzed periodically for the respective mutual prodrug and reaction products by LCMS.
The concentration of the alkaline phosphatase in the reaction buffer was ˜600 ng/μL (the enzyme activity of the solution was not determined).
The concentration of the alkaline phosphatase in the buffer added to the stock solution was ˜600 ng/μl (the enzyme activity of the solution was not determined).

## C[C@]12C=CC(=O)C=C1CC[C@H]1[C@@H]3C[C@H]4O[C@@H](C5CCCCC5)O[C@@]4(C(=O)CN4CC[N+](C)(Cc5ccc(C(O)CNCCCCCCOCCCCc6ccccc6)cc5OP(=O)(O)O)CC4)[C@@]3(C)C[C@H](O)[C@@]12F (stereo partly drawn) [Example 107, Salmeterol-phosphate-16,17-[(Cyclohexylmethylene)bis(oxy)]-9-fluoro-11-hydroxy-21-(4-methylpiperazinium)-pregna-1,4-diene-3,20-dione[11β,16α(R)]]
[1]
  IC50: 810 nM
[2]
  IC50: 80 nM
[3]
  compounds detected in the control solution (without enzyme): Only the mutual prodrug 16 was detected
[4]
  anti-inflammatory activity (cytokine release inhibition), assessment in words: less active or inactive
[5]
  course in the reaction solution (with enzyme): disappearance of the mutual prodrug 16
[5]; 0.00 Hours @ 37° C.
  Prodrug 16 Concentration: 91.0 nmol/mL
[5]; 0.59 Hours @ 37° C.
  Prodrug 16 Concentration: 87.7 nmol/mL
[5]; 1.19 Hours @ 37° C.
  Prodrug 16 Concentration: 78.6 nmol/mL
[5]; 2.96 Hours @ 37° C.
  Prodrug 16 Concentration: 67.8 nmol/mL
[5]; 3.56 Hours @ 37° C.
  Prodrug 16 Concentration: 62.3 nmol/mL
[5]; 4.15 Hours @ 37° C.
  Prodrug 16 Concentration: 61.6 nmol/mL
[5]; 10.67 Hours @ 37° C.
  Prodrug 16 Concentration: 43.1 nmol/mL
[5]; 15.41 Hours @ 37° C.
  Prodrug 16 Concentration: 36.7 nmol/mL
[5]; 19.56 Hours @ 37° C.
  Prodrug 16 Concentration: 33.1 nmol/mL
[5]; 24.30 Hours @ 37° C.
  Prodrug 16 Concentration: 29.3 nmol/mL
[5]; 30.82 Hours @ 37° C.
  Prodrug 16 Concentration: 24.8 nmol/mL
[5]; 34.97 Hours @ 37° C.
  Prodrug 16 Concentration: 23.0 nmol/mL

## C[C@]12C=CC(=O)C=C1CCC1C3C[C@H]4OC(c5ccc[n+](Cc6ccc(C(O)CNCCCCCCOCCCCc7ccccc7)cc6OP(=O)(O)O)c5)O[C@@]4(C(=O)CO)[C@@]3(C)C[C@H](O)[C@@]12F (stereo partly drawn) [Example 133]
[1]
  IC50: > 1000 nM
[2]
  IC50: 180 nM
[3]
  compounds detected in the control solution (without enzyme): Only the mutual prodrug 17 was detected
[4]
  anti-inflammatory activity (cytokine release inhibition), assessment in words: less active or inactive
[5]
  course in the reaction solution (with enzyme): disappearance of the mutual prodrug
[5]; 0.00 Hours @ 37° C.
  Prodrug 17 Concentration: 214.4 nmol/mL
[5]; 0.53 Hours @ 37° C.
  Prodrug 17 Concentration: 112.6 nmol/mL
[5]; 1.05 Hours @ 37° C.
  Prodrug 17 Concentration: 44.9 nmol/mL
[5]; 2.10 Hours @ 37° C.
  Prodrug 17 Concentration: 9.8 nmol/mL
[5]; 3.16 Hours @ 37° C.
  Prodrug 17 Concentration: 4.2 nmol/mL
[5]; 4.21 Hours @ 37° C.
  Prodrug 17 Concentration: 3.7 nmol/mL
[5]; 10.52 Hours @ 37° C.
  Prodrug 17 Concentration: 0.0 nmol/mL
[5]; 19.99 Hours @ 37° C.
  Prodrug 17 Concentration: 0.0 nmol/mL
[5]; 29.46 Hours @ 37° C.
  Prodrug 17 Concentration: 0.0 nmol/mL
[5]; 39.99 Hours @ 37° C.
  Prodrug 17 Concentration: 0.0 nmol/mL
[5]; 49.46 Hours @ 37° C.
  Prodrug 17 Concentration: 0.0 nmol/mL
